Experiments:
[1] = biological target: Glutamate NMDA receptor; assay: Displacement of [3H]TCP from tissue homogenate preparation of whole rat brain minus cerebellum; format: tissue-based
[2] = organism: Rattus norvegicus; assay: Behavioral potency by which rat discriminate phencyclidine from saline in a 2 lever drug discrimination procedure; format: functional

CC[C@@]1(c2ccccc2)OC[C@H]([C@H]2CCCCN2)O1.CC[C@]1(c2ccccc2)OC[C@H]([C@H]2CCCCN2)O1
Ki [1]: 38 µM
ED50 [2]: >100 µM

CC[C@@]1(c2ccccc2)OC[C@@H]([C@H]2CCCCN2)O1
Ki [1]: 2.3 µM
ED50 [2]: >100 µM

CC[C@@]1(c2ccccc2)OC[C@@H]([C@@H]2CCCCN2)O1.CC[C@]1(c2ccccc2)OC[C@@H]([C@@H]2CCCCN2)O1
Ki [1]: 40 µM
ED50 [2]: >100 µM

CC[C@@]1(c2ccccc2)OC[C@H]([C@@H]2CCCCN2)O1
Ki [1]: 3.7 µM

CC[C@]1(c2ccccc2)OC[C@H]([C@@H]2CCCCN2)O1 [ETOXADROL]
Ki [1]: 0.107 µM
ED50 [2]: 2.4 µM

Reference: ChEMBL document CHEMBL1124017, “Synthesis, absolute configuration, and molecular modeling study of etoxadrol, a potent phencyclidine-like agonist” (J Med Chem, 1988)
